Data reported in patent publication US10464927B2, “2,4-disubstituted pyrimidines as CDK inhibitors” (Shanghai Xunhe Pharmaceutical Technology Co. Ltd., priority 2016, dated 2019).

What was measured:
CDK6 = CDK6 (Homo sapiens (Human), UniProt Q00534); assay: CDK6 protein kinase activity, Caliper mobility shift assay; assay type: biochemical; conditions: GST-CDK6(1-326 end), substrate Peptide FAM-P8, 28° C. for 3 h
Protocol: (§1) Activity Assay: The CDK6 protein kinase activity was measured using the Caliper mobility shift assay (see J. Biomol. Screen, 2009, PP31). The test compound was dissolved in DMSO and diluted with a kinase buffer solution (20 mM HEPES-pH 7.5, 0.01% Triton X-100, 10 mM MgCl2, 2 mM DTT) and 5 μL of compound at 5-fold final concentration of reaction dissolved in 10% DMSO was added in a 384-well plate. The compound-free control well was 5 μL of 10% DMSO, and the no-activity control well was 5 μL of kinase buffer. 10 μL of a 2.5-fold diluted CDK6 enzyme solution (GST-CDK6(1-326 end)) was added and incubated at room temperature for 10 min, and then 10 μL of the 2.5-fold diluted substrate solution Peptide FAM-P8 was added. The reaction was stopped by adding 25 μL of stop solution after incubation at 28° C. for 3 h, and the conversion rate data was read on a Caliper EZ Reader II (Caliper Life Sciences) and the conversion rate was converted to inhibition rate data according to above method. Among them, the inhibition rate %=(max−conversion)/(max−min)×100%.

CDK4 = CDK4 (Homo sapiens (Human), UniProt P11802); assay: CDK4 protein kinase activity, Caliper mobility shift assay; assay type: biochemical; conditions: GST-CDK4(1-303 end), substrate Peptide FAM-P8, 28° C. for 3 h
CDK4, sequence (P11802 whole entry): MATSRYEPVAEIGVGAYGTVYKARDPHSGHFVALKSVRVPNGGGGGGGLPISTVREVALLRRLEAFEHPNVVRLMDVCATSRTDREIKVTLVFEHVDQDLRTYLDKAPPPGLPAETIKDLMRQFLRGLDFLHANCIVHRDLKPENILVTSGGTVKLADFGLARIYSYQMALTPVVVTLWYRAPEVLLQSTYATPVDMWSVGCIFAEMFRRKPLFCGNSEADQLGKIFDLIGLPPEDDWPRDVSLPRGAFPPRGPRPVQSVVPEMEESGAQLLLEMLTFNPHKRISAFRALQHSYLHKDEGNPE
CDK4, sequence (P30281 whole entry partner): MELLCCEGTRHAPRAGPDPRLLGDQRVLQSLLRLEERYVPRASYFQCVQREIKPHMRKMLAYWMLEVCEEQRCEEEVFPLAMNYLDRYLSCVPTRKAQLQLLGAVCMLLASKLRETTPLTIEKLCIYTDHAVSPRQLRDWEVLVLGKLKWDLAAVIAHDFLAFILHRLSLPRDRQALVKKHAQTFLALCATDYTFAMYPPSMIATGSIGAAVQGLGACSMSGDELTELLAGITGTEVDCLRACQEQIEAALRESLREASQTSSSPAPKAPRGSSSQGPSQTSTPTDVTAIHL
Protocol: as §1, with “activity assay:” for “Activity Assay:”, “CDK4” for “CDK6”, “(GST-CDK4(1-303” for “(GST-CDK6(1-326”

CDK6, sequence (Q00534 whole entry): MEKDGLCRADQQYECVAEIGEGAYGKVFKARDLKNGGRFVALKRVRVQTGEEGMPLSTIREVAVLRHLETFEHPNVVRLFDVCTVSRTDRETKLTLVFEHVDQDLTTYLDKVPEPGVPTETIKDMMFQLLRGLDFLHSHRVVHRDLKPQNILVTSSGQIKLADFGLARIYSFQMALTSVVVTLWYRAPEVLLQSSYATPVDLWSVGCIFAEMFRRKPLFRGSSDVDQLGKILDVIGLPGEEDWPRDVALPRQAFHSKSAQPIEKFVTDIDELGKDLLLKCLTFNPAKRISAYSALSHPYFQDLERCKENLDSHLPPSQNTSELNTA
CDK6, sequence (P30281 whole entry partner): as the sequence (P30281 whole entry partner) above

Row | IC50 (CDK6) [nM] | IC50 (CDK4) [nM] | Structure (SMILES)
1 | ≤ 20 | ≤ 20 | CCN1CCN(Cc2ccc(Nc3ncc(F)c(-c4ccc5c(ccn5C(C)C)c4)n3)nc2)CC1 [Compound I-1, N-(5-(4-ethylpiperazine-1-methyl)-pyridin-2-yl)-5-fluoro-4-(1-isopropyl-1H-indol-5-yl)-pyrimidin-2-amine]
2 | ≤ 20 | ≤ 20 | CC(C)n1ccc2cc(-c3nc(Nc4ccc(N5CCNCC5)cn4)ncc3F)ccc21 [Compound I-2, N-(5-(piperazin-1-yl)-pyridin-2-yl)-5-fluoro-4-(1-isopropyl-1H-indol-5-yl)pyrimidine 2-amine]
3 | ≤ 20 | ≤ 20 | Cc1c2ccc(-c3nc(Nc4ccc(N5CCNCC5)cn4)ncc3F)cc2nn1C [Compound I-5, N-(5-(piperazin-1-yl)-pyridin-2-yl)-5-fluoro-4-(2,3-dimethyl-2H-indazol-6-yl)pyrimidin-2-amine]
4 | 20 to 100 | ≤ 20 | CCN1CCN(Cc2ccc(Nc3ncc(F)c(-c4ccc5nnc(C(C)C)n5c4)n3)nc2)CC1 [Compound I-6, N-(5-(4-ethylpiperazine-1-methyl)-pyridin-2-yl)-5-fluoro-4-(3-isopropyl-[1,2,4]triazolo[4,3-a]pyridin-6-yl)pyrimidin-2-amine]
5 | ≤ 20 | ≤ 20 | CC(C)c1nnc2ccc(-c3nc(Nc4ccc(N5CCNCC5)cn4)ncc3F)cn12 [Compound I-7, N-(5-(piperazin-1-yl)-pyridin-2-yl)-5-fluoro-4-(3-isopropyl-[1,2,4]triazolo[4,3-a]pyridine-6-yl)pyrimidin-2-amine]
6 | 20 to 100 | ≤ 20 | Cc1nc2cnc(-c3nc(Nc4ccc(N5CCNCC5)cn4)ncc3F)nc2n1C(C)C [Compound I-8, N-(5-(piperazin-1-yl)-pyridin-2-yl)-5-fluoro-4-(9-isopropyl-8-methyl-9H-purin-2-yl)pyrimidin-2-amine]
7 | 20 to 100 | 20 to 100 | CCN1CCN(Cc2ccc(Nc3ncc(F)c(-c4ncc5nc(C)n(C(C)C)c5n4)n3)nc2)CC1 [Compound I-9, N-(5-(4-ethylpiperazine-1-methyl)-pyridin-2-yl)-5-fluoro-4-(9-isopropyl-8-methyl-9H-purin-2-yl)pyrimidin-2-amine]
8 | 20 to 100 | ≤ 20 | CC(C)n1c(C(=O)N(C)C)c(F)c2c(-c3nc(Nc4ccc(N5CCNCC5)cn4)ncc3F)ncnc21 [Compound I-10, N-(5-(piperazin-1-yl)-pyridin-2-yl)-5-fluoro-4-(5-fluoro-6-formic acid diformamido-7-isopropyl-7H-pyrrolo[2,3-d]pyrimidin-4-yl)pyrimidin-2-amine]
9 | 100 to 500 | ≤ 20 | CCN1CCN(Cc2ccc(Nc3ncc(F)c(-c4ncnc5c4cc(C)n5C4CCCC4)n3)nc2)CC1 [Compound I-11, N-(5-(4-ethylpiperazine-1-methyl)-pyridin-2-yl)-5-fluoro-4-(6-methyl-7-cyclopentyl-7H-pyrrolo[2,3-d]pyrimidin-4-yl)pyrimidin-2-amine]
10 | ≤ 20 | ≤ 20 | Cn1nc2nc(-c3nc(Nc4ccc(N5CCNCC5)cn4)ncc3F)ccc2c1C1CCCC1 [Compound I-12, N-(5-(piperazin-1-yl)-pyridin-2-yl)-5-fluoro-4-(2-methyl-3-cyclopentyl-2H-7-azaindazol-6-yl)pyrimidin-2-amine]
11 | ≤ 20 | ≤ 20 | CN(C)C(=O)c1cc2cc(-c3nc(Nc4ccc(N5CCNCC5)cn4)ncc3F)ccc2n1C1CCCC1 [Compound I-14, N-(5-(piperazin-1-yl)-pyridin-2-yl)-5-fluoro-4-(1-cyclopentyl-2-formic acid diformamido-1H-indol-5-yl)pyrimidin-2-amine]
12 | 20 to 100 | 100 to 500 | CCC(CC)n1c(C(C)=O)cc2cc(-c3nc(Nc4ccc(CN5CCN(C)CC5)cn4)ncc3Cl)ccc21 [Compound I-15, N-(5-(4-methylpiperazine-1-methyl)-pyridin-2-yl)-5-chloro-4-(1-(3-pentyl)-2-acetyl-1H-indol-5-yl)pyrimidin-2-amine]
13 | ≤ 20 | ≤ 20 | Cc1c(C(F)(F)F)c2cc(-c3ccnc(Nc4ccc(CN5CCN(C(C)C)CC5)cn4)n3)ccc2n1C [Compound I-16, N-(5-(4-isopropylpiperazin-1-methyl)-pyridin-2-yl)-4-(1,2-dimethyl-3-trifluoromethyl-1H-indol-5-yl)pyrimidin-2-amine]
14 | 20 to 100 | – | CC(C)c1c(C#N)n(C2CC2)c2ccc(-c3nc(Nc4ccc(CN5CCN(C6CC6)CC5)cn4)ncc3F)cc12 [Compound I-17, N-(5-(4-cyclopropylpiperazine-1-methyl)-pyridin-2-yl)-5-fluoro-4-(1-cyclopropyl-2-cyano-3-isopropyl-1H-indol-5-yl)pyrimidin-2-amine]
15 | ≤ 20 | ≤ 20 | Fc1cnc(Nc2ccc(CN3CCN(C4CCCCCC4)CC3)cn2)nc1-c1ccc2c(c1)c(C1CC1)cn2C1CCC1 [Compound I-18, N-(5-(4-cycloheptylpiperazine-1-methyl)-pyridin-2-yl)-5-fluoro-4-(1-cyclobutyl-3-cyclopropyl-1H-indol-5-yl)pyrimidin-2-amine]
16 | > 500 | ≤ 20 | Fc1cnc(Nc2ccc(CN3CCN(C4CCCCC4)CC3)cn2)nc1-c1ccc2c(c1)c(C1CCC1)cn2C1CCCCC1 [Compound I-19, N-(5-(4-cyclohexylpiperazin-1-methyl)-pyridin-2-yl)-5-fluoro-4-(1-cyclohexyl-3-cyclobutyl-1H-indol-5-yl)pyrimidin-2-amine]
17 | 20 to 100 | ≤ 20 | CC(C)n1c(C2CCCC2)cc2cc(-c3nc(Nc4ccc(N5CCN(C6CCC6)CC5)cn4)ncc3F)ccc21 [Compound I-21, N-(5-(4-cyclobutylpiperazin-1-yl)-pyridin-2-yl)-5-fluoro-4-(1-isopropyl-2-cyclopentyl-1H-indol-5-yl)pyrimidin-2-amine]
18 | ≤ 20 | ≤ 20 | CCN1CCN(Cc2ccc(Nc3ncc(F)c(-c4ccc5c(c4)cc(C(=O)N(C)C)n5C4CCCC4)n3)nc2)CC1 [Compound I-22, N-(5-(4-ethylpiperazine-1-methyl)-pyridin-2-yl)-5-fluoro-4-(1-cyclopentyl-2-formic acid diformamido-1H-indol-5-yl)pyrimidin-2-amine]
19 | ≤ 20 | ≤ 20 | CC(=O)c1cc2cc(-c3nc(Nc4ccc(N5CCNCC5)cn4)ncc3F)ccc2n1C(C)C [Compound I-23, N-(5-(piperazin-1-yl)-pyridin-2-yl)-5-fluoro-4-(1-isopropyl-2-acetyl-1H-indol-5-yl)pyrimidin-2-amine]
20 | ≤ 20 | ≤ 20 | CCN1CCN(Cc2ccc(Nc3ncc(F)c(-c4ccc5c(c4)cc(C(C)=O)n5C(C)C)n3)nc2)CC1 [Compound I-24, N-(5-(4-ethylpiperazine-1-methyl)-pyridin-2-yl)-5-fluoro-4-(1-isopropyl-2-acetyl-1H-indol-5-yl)pyrimidin-2-amine]
21 | ≤ 20 | ≤ 20 | CC(C)n1c(C(=O)N(C)C)cc2nc(-c3nc(Nc4ccc(N5CCNCC5)cn4)ncc3F)ccc21 [Compound I-25, N-(5-(piperazin-1-yl)-pyridin-2-yl)-5-fluoro-4-(1-isopropyl-2-formic acid diformamido-1H-4-azaindol-5-yl)pyrimidin-2-amine]
22 | 20 to 100 | – | CC(C)c1c2ccc(-c3nc(Nc4ccc(N5CCNCC5)cn4)ncc3F)c(Cl)c2nn1C [Compound I-30, N-(5-(piperazin-1-yl)-pyridin-2-yl)-5-fluoro-4-(2-methyl-3-isopropyl-2H-7-chloro-indazol-6-yl)pyrimidin-2-amine]

Row | Structure (SMILES) | IC50 (CDK6) [nM] | IC50 (CDK4) [nM]
23 | CC(=O)c1cn(C2CCCC2)c2ccc(-c3nc(Nc4ccc(N5CCNCC5)cn4)ncc3F)cc12 [Compound I-3, N-(5-(piperazin-1-yl)-pyridin-2-yl)-5-fluoro-4-(1-cyclopentyl-3-acetyl-1H-indol-5-yl)pyrimidin-2-amine] | ≤ 20 | ≤ 20
24 | CCN1CCN(Cc2ccc(Nc3ncc(F)c(-c4ccc5c(c4)c(C(C)=O)cn5C4CCCC4)n3)nc2)CC1 [Compound I-4, N-(5-(4-ethylpiperazine-1-methyl)-pyridin-2-yl)-5-fluoro-4-(1-cyclopentyl-3-acetyl-1H-indol-5-yl)pyrimidin-2-amine] | 20 to 100 | ≤ 20
25 | CC(=O)c1cn(C2CCCCCC2)c2ccc(-c3nc(Nc4ccc(CN5CCN(C6CCCC6)CC5)cn4)ncc3F)cc12 [Compound I-20, N-(5-(4-cyclopentylpiperazin-1-methyl)-pyridin-2-yl)-5-fluoro-4-(1-cycloheptyl-3-acetyl-1H-indol-5-yl)pyrimidin-2-amine] | ≤ 20 | ≤ 20
